Key:
[1] = tested on: DNA ligase; test: Storage stability of dried ATP by DNA ligase assay; format: biochemical; details: ATP at 0.5 mM dried with ligase in trehalose buffer, no acetate as efflorescent salt; 2 weeks at 37°C
From the text: Using an assay for DNA ligase whioh joins DNA fragments using ATP as an energy source.

[2] = solutions of 25% wv, in six hours at 5°C; cited from earlier work

Nc1ncnc2c1ncn2[C@@H]1O[C@H](COP(=O)(O)OP(=O)(O)OP(=O)(O)O)[C@@H](O)[C@H]1O [ATP]
stability of ATP in the dry state [1]: completely stable

CC1(C)S[C@@H]2[C@H](NC(=O)[C@H](N)c3ccccc3)C(=O)N2[C@H]1C(=O)O [Ampicillin sodium]
loss of potency [2]: 20%
